The values below come from article PMC12467033, “Exploring the Inhibitory Potential of Six Porphyrin Compounds Against α-Amylase and α-Glucosidase Linked to Diabetes” (Biomolecules, 2025).

The target of series [1] is T1, α-amylase (Sus scrofa, UniProt P00690).
T1 sequence (P00690 16-511): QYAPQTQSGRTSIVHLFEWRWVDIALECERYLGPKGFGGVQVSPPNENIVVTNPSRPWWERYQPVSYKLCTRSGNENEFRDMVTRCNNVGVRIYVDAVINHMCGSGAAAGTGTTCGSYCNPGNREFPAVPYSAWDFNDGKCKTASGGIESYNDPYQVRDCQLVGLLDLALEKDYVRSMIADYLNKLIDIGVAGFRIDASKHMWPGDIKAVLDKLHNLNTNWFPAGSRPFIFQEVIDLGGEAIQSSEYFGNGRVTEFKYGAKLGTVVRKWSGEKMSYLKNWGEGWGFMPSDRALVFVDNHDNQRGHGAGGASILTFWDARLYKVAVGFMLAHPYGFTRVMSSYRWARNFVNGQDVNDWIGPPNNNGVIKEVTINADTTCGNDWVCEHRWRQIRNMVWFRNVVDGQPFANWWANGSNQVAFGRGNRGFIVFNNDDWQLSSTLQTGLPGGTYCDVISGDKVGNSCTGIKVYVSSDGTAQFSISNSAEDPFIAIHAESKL
In words: Fluorescence quenching, binding and thermodynamics with α-amylase. The following applies: for quenching mechanism of α-amylase fluorescence: Stern–Volmer plots; for quenching mechanism of α-amylase fluorescence / ΔH^0 / ΔS^0: 298–310 K; for ΔH^0 / ΔS^0: Van’t Hoff. An excerpt:
In the α-amylase experiment, a series of porphyrins and amylase (200 U/L) were mixed in a volume ratio of 1:1.
The Stern–Volmer equation [35] was adopted to determine the quenching mechanisms between six porphyrin compounds and both enzymes in the experimental group, with Formula (6):(6) F0/F=1+Ksv[Q]=1+Kqτ0[Q]
The Stern–Volmer equation was adapted based on experimental data to more accurately characterize the quenching behavior [36], with Formula (7):(7) F0/F=e^Ksv[Q]=e^Kqτ0[Q]
In the formula, the fluorescence quenching ratio was calculated as F0/F, where F0 corresponds to the emission intensity of pure α-amylase solution (control) and F denotes the intensity measured after the incremental addition of porphyrin ligands. KSV and Kq denote the Stern–Volmer quenching constant and the bimolecular quenching rate constant, respectively, τ0 (10^−8 s) is the average fluorescence lifetime of the fluorophore in the absence of quencher, and [Q] indicates the concentration of porphyrin compounds.
Due to the presence of an internal filtration effect, a decrease in the fluorescence intensity of the system may occur. Therefore, all fluorescence data were corrected using Formula (8) to eliminate the internal filtration effect.(8) Fcor=Fobse^(Aex+Aem)/2
The evaluation of the interaction forces between porphyrin compounds and the two enzymes can be achieved by calculating thermodynamic parameters. When both ΔH^0 and ΔS^0 are positive, the predominant interaction force is hydrophobic. When both ΔH^0 and ΔS^0 are negative, the main forces are hydrogen bonding and van der Waals forces. When ΔH^0 < 0 and ΔS^0 > 0, the primary interaction is electrostatic attraction.
The thermodynamic parameters were calculated using Formulas (9) and (10), and then the Van’t Hoff plot for the interactions between the porphyrin compounds and the two enzymes was generated by plotting lnKa on the Y-axis versus 1/T on the X-axis.(9) lnKa=−ΔH^0/RT+ΔS^0/R (10) ΔG^0=ΔH^0−TΔS^0=−RTlnKa

Series [2] has as its target T1, α-amylase. The series can be described thus: In vitro stability study (temperature, pH), inhibition rate against α-amylase. The class given is physicochemical. To be noted: water bath 30–100 °C, 20 min. How it is done: (§1) Samples of a certain mass concentration were subjected to a water bath at different temperatures (30, 40, 50, 60, 70, 80, 90, 100 °C) for 20 min and treated under different pH conditions (2.0, 3.0, 4.0, 5.0, 6.0, 7.0, 8.0, 9.0, and 10.0) for 20 min to determine the effect of temperature and pH on the stability of the two enzymes.

Series [3] concerns the target T2, α-glucosidase (Saccharomyces cerevisiae, UniProt P53341). The series can be described thus: In vitro stability study (temperature, pH), inhibition rate against α-glucosidase. The class given is physicochemical. The following applies: water bath 30–100 °C, 20 min. How it is done:
as §1

Another series concerns HepG2 cells. The series can be described thus: MTT cytotoxicity assay. The format is cell-based, human. The following applies: HepG2, 50–200 μg/mL, 24 h. On the procedure: The cytotoxicity of six porphyrin compounds against human hepatocellular carcinoma HepG2 cells was evaluated using the MTT assay. HepG2 cells were seeded into 96-well plates at a density of 5000 cells per well and cultured for 24 h at 37 °C in a 5% CO2 incubator. Then, 100 µL of sample solutions at various concentrations (50, 100, and 200 µg/mL) was added to the experimental wells, with blank control wells and solvent control wells also included. The cells were further incubated for 24 h. After incubation, 10 µL of MTT solution (5 mg/mL) was added to each well, and the plates were incubated for another 4 h. Subsequently, 100 µL of Formazan solubilization solution was added to each well, followed by gentle mixing. The plates were returned to the incubator and maintained until complete dissolution of Formazan crystals was observed under a microscope. The absorbance at 570 nm was measured using a microplate reader (Meigu Molecular Instrument Company, Shanghai, China), and the survival rate of HepG2 cells was calculated.(12) Cell viability=As-Ab/Ac-Ab×100%
In the formula, As represents the absorbance of the sample well, Ac denotes the absorbance of the blank control well (without the drug), and Ab refers to the absorbance of the solvent control well (devoid of both cells and the drug).

In series [4] the target is T2, α-glucosidase. The series can be described thus: α-Glucosidase inhibitory activity assay (pNPG substrate). The following applies: 37 °C. The format is biochemical. On the procedure:
The experimental groups were supplemented with different concentrations of porphyrin compounds, followed by the addition of 100 μL of 5 mmol/L pNPG. After thorough mixing, the samples were pre-incubated at 37 °C for 10 min. Subsequently, the reaction was terminated by adding 0.1 mol/L of sodium carbonate (Na2CO3) solution. Following a 3 min reaction period, the absorbance of the solutions at 405 nm was measured using a microplate reader. The inhibition rate (%) was subsequently calculated using Formula (1).
Using the enzyme inhibition rate as the y-axis and the inhibitor concentration as the x-axis, the IC50 value was calculated through linear regression fitting with GraphPad Prism software (5.0).

T2 sequence (P53341 whole entry): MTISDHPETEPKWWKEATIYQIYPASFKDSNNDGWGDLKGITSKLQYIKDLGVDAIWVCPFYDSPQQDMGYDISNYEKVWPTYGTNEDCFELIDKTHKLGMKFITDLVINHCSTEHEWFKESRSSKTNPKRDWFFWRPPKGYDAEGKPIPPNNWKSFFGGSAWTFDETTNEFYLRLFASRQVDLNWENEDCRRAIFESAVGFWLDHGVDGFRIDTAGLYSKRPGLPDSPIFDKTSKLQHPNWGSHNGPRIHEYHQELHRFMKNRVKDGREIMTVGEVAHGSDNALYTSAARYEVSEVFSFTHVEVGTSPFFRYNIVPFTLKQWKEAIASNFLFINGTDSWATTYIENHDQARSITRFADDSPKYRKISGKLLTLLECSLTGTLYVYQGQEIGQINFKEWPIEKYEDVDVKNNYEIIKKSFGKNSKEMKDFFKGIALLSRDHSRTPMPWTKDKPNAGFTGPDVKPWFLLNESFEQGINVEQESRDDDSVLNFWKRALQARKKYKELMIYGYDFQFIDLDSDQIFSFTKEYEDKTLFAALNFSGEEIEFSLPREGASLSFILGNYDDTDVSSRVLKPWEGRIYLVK

Take `Nc1ccc(-c2c3nc(c(-c4ccc(N)cc4)c4ccc([nH]4)c(-c4ccc(N)cc4)c4nc(c(-c5ccc(N)cc5)c5ccc2[nH]5)C=C4)C=C3)cc1` [TAPP]: at α-amylase [1], the “quenching mechanism of α-amylase fluorescence” value (from here on “quenching mechanism”) is given as “pure static quenching”, the “ΔH^0” value was -29.935 ± 0.0287 kcal/mol and the “ΔS^0” value is on record as −291.29 ± 0.12 J/mol/k. In addition, at α-amylase [1] (T 298 K), the Kq was 4.07 ± 0.05 ×10^12 L/mol/s, the Ksv is on record as 4.07 ± 0.05 ×10^4 L/mol, the “n (number of binding sites)” value was found to be 1.48 and the “ΔG^0” value is -9.168 ± 0.0263 kcal/mol. For the same molecule, at α-amylase [1] (T 304 K), the Kq is on record as 3.37 ± 0.02 ×10^12 L/mol/s, the Ksv was 3.37 ± 0.02 ×10^4 L/mol, the “n (number of binding sites)” value was 1.40 and the “ΔG^0” value is -8.817 ± 0.0287 kcal/mol. Besides, at α-amylase [1] (T 310 K), the Kq is 3.07 ± 0.09 ×10^12 L/mol/s, the Ksv is reported as 3.07 ± 0.09 ×10^4 L/mol, the “n (number of binding sites)” value turned out to be 1.31 and the “ΔG^0” value is -8.329 ± 0.0239 kcal/mol.

For `O=C(O)c1ccc(-c2c3nc(c(-c4ccc(C(=O)O)cc4)c4ccc([nH]4)c(-c4ccc(C(=O)O)cc4)c4nc(c(-c5ccc(C(=O)O)cc5)c5ccc2[nH]5)C=C4)C=C3)cc1` [TCPP], at α-amylase [1], the “quenching mechanism” value is “pure static quenching”, the “ΔH^0” value is -26.778 ± 0.014 kcal/mol and the “ΔS^0” value was −259.31 ± 0.09 J/mol/k. On α-amylase [1] (T 298 K), the Kq is on record as 4.04 ± 0.01 ×10^12 L/mol/s, the Ksv is 4.04 ± 0.01 ×10^4 L/mol, the “n (number of binding sites)” value is reported as 1.36 and the “ΔG^0” value is -8.315 ± 0.022 kcal/mol. Besides, at α-amylase [1] (T 304 K), the Kq is listed as 3.55 ± 0.08 ×10^12 L/mol/s, the Ksv is reported as 3.55 ± 0.08 ×10^4 L/mol, the “n (number of binding sites)” value stood at 1.28 and the “ΔG^0” value is -7.928 ± 0.017 kcal/mol. Also, on α-amylase [1] (T 310 K), the Kq is listed as 3.01 ± 0.07 ×10^12 L/mol/s, the Ksv is 3.01 ± 0.07 ×10^4 L/mol, the “n (number of binding sites)” value worked out at 1.20 and the “ΔG^0” value is -7.572 ± 0.017 kcal/mol. In addition, the “thermal stability: inhibition rate against α-amylase” value on α-amylase [2] was “small fluctuations”. The “thermal stability: inhibition rate against α-glucosidase” value at α-glucosidase [3] was “remained relatively stable”.

`Oc1ccc(-c2c3nc(c(-c4ccc(O)cc4)c4ccc([nH]4)c(-c4ccc(O)cc4)c4nc(c(-c5ccc(O)cc5)c5ccc2[nH]5)C=C4)C=C3)cc1` [THPP]: on α-amylase [1], the “quenching mechanism” value is given as “pure static quenching”, the “ΔH^0” value was -12.73 ± 0.012 kcal/mol and the “ΔS^0” value is on record as −68.61 ± 0.06 J/mol/k. In addition, at α-amylase [1] (T 298 K), the Kq is listed as 8.90 ± 0.06 ×10^12 L/mol/s, the Ksv is on record as 8.90 ± 0.06 ×10^4 L/mol, the “n (number of binding sites)” value worked out at 1.19 and the “ΔG^0” value was -7.844 ± 0.019 kcal/mol. Moreover, at α-amylase [1] (T 304 K), the Kq is listed as 8.20 ± 0.02 ×10^12 L/mol/s, the Ksv is 8.20 ± 0.02 ×10^4 L/mol, the “n (number of binding sites)” value was determined as 1.16 and the “ΔG^0” value is -7.737 ± 0.019 kcal/mol. For the same molecule, on α-amylase [1] (T 310 K), the Kq was 7.64 ± 0.07 ×10^12 L/mol/s, the Ksv is recorded as 7.64 ± 0.07 ×10^4 L/mol, the “n (number of binding sites)” value amounted to 1.12 and the “ΔG^0” value was -7.646 ± 0.017 kcal/mol. Moreover, the “cytotoxicity (in words)” value in the series on HepG2 cells is reported as “certain cytotoxic effects”. Moreover, the “thermal stability: inhibition rate against α-amylase” value at α-amylase [2] is on record as “small fluctuations”. The “thermal stability: inhibition rate against α-glucosidase” value at α-glucosidase [3] is recorded as “remained relatively stable”.

With “iron (III) meso-tetra (4-carboxyphenyl) porphyrin chloride [Fe–TCPP]”, at α-amylase [1], the “quenching mechanism” value is “mixed quenching”, the “ΔH^0” value was -93.248 ± 0.0406 kcal/mol and the “ΔS^0” value is given as −1156.68 ± 0.13 J/mol/k. Also, at α-amylase [1] (T 298 K), the “Ka (binding constant)” value is 944.30 ± 0.18 ×10^5 L/mol, the Kq was 4.32 ± 0.06 ×10^12 L/mol/s, the Ksv is reported as 4.32 ± 0.06 ×10^4 L/mol and the “n (number of binding sites)” value stood at 1.65. In addition, on α-amylase [1] (T 298 K), the “ΔG^0” value is -10.87 ± 0.017 kcal/mol. On α-amylase [1] (T 304 K), the “Ka (binding constant)” value is 40.38 ± 0.09 ×10^5 L/mol, the Kq was 3.36 ± 0.06 ×10^12 L/mol/s, the Ksv was 3.36 ± 0.06 ×10^4 L/mol and the “n (number of binding sites)” value was found to be 1.38. For the same molecule, the “ΔG^0” value at α-amylase [1] (T 304 K) was -9.19 ± 0.014 kcal/mol. At α-amylase [1] (T 310 K), the “Ka (binding constant)” value was 2.13 ± 0.05 ×10^5 L/mol, the Kq is 3.29 ± 0.08 ×10^12 L/mol/s, the Ksv is listed as 3.29 ± 0.08 ×10^4 L/mol and the “n (number of binding sites)” value amounted to 1.05. For the same molecule, the “ΔG^0” value on α-amylase [1] (T 310 K) was -7.557 ± 0.019 kcal/mol. The “IC50 α-GLU” value against α-glucosidase [4] is 23.93 ± 0.53 µg/mL. For the same molecule, the “thermal stability: inhibition rate against α-amylase” value at α-amylase [2] is given as “small fluctuations”. The “thermal stability: inhibition rate against α-glucosidase” value on α-glucosidase [3] was “remained relatively stable”.
